Series [1] has as its target T1, α6β3γ2 GABAA receptor (Homo sapiens, UniProt P18507+Q16445).
T1 construct: expressed in transfected cells
The series is described as follows: Binding affinity at recombinant GABAA receptors (Ltk cells stably transfected).

Series [2] addresses T2, α1β3γ2 GABAA receptor (Homo sapiens, UniProt P14867+P18507).
T2 construct: expressed in transfected cells
Described as above. The conditions noted are these: recombinant αxβ3γ2; read-out: Ki α1.

Series [3] deals with T3, α3β3γ2 GABAA receptor (Homo sapiens, UniProt P18507+P34903).
T3 construct: expressed in transfected cells
T3 sequence (P34903 29-492): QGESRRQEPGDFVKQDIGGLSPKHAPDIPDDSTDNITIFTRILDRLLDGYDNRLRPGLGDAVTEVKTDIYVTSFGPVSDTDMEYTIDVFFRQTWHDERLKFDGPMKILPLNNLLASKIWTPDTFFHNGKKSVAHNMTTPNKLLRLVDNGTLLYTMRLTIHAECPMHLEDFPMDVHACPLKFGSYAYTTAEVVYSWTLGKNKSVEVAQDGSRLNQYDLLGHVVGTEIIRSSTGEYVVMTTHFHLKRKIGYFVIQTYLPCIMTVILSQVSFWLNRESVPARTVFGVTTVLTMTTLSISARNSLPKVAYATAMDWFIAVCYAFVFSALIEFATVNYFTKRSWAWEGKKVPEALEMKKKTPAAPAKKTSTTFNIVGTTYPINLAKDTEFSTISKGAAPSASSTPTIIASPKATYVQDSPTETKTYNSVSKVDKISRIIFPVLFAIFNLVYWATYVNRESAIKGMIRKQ
T3 sequence (P28472 26-473 partner): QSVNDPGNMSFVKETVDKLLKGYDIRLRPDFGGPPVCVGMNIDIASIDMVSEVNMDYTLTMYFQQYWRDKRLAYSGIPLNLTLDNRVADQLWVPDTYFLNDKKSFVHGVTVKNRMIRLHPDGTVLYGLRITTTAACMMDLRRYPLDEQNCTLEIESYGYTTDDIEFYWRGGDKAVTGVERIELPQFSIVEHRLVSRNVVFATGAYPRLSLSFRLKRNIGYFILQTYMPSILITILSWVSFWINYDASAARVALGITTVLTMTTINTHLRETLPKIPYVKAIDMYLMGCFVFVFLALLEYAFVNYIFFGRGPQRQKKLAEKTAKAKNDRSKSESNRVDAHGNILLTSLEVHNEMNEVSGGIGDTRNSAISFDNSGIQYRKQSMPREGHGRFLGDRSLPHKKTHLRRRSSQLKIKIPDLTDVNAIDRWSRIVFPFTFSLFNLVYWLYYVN
T3 sequence (P18507 40-475): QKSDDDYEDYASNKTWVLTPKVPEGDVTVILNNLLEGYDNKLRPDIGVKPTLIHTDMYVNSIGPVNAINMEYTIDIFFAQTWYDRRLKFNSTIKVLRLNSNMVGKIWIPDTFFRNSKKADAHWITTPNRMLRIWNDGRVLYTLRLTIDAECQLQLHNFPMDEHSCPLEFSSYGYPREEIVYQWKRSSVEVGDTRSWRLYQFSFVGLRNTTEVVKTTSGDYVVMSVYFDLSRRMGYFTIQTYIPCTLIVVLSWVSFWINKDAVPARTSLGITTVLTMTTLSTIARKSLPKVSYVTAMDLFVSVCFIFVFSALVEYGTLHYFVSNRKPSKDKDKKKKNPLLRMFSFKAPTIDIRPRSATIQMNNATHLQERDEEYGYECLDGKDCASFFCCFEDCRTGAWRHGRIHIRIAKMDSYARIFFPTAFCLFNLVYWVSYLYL
Described as above. The conditions noted are these: recombinant αxβ3γ2; read-out: Ki α3.

Series [4] has as its target T4, α5β3γ2 GABAA receptor (Homo sapiens, UniProt P18507+P31644).
T4 construct: expressed in transfected cells
The description is as above.

The target in series [5] is T5, α2β3γ2 GABAA receptor (Homo sapiens, UniProt P18507+P47869).
T5 construct: expressed in transfected cells
T5 sequence (P47869 29-451): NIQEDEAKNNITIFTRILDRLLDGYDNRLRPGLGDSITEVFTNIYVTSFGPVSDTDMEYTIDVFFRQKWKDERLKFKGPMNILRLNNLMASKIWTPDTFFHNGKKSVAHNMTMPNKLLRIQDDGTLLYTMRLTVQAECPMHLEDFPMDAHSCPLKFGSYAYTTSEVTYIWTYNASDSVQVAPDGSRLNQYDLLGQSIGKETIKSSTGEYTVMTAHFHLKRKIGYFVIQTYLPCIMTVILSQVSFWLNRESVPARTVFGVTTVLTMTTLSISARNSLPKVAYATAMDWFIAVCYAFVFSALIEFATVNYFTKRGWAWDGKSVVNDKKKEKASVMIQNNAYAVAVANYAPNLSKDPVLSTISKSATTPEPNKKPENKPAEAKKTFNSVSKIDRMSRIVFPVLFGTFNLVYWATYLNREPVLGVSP
T5 sequence (P28472 26-473 partner): as the sequence (P28472 26-473 partner) above
T5 sequence (P18507 40-475): as the sequence (P18507 40-475) above
The description is as above. To be noted: recombinant αxβ3γ2; read-out: Ki α2.

For series [6], the target named is wild type BDZ receptors (cerebral cortical membranes). The series is described as follows: Radioligand displacement at cerebral cortical membranes. Format: binding. To be noted: read-out: Displacement of [3H] flunitrazepam in vitro, IC50; rat cerebral cortical membranes; mean of three or more experiments. As to the method:
[^3H] […] In brief, rats were sacrificed by decapitation, and the cerebral cortex removed. […] Tissue was resuspended in an equal volume of buffer and recentrifuged. This procedure was repeated a total of three times and the tissue resuspended in 50 volumes of buffer. Incubations (1 mL) consisted of tissue (0.3 mL), drug solution (0.1 mL), buffer (0.5 mL) and radioligand (0.1 mL). […] The IC50 values were estimated using Hill plots.

The test system of series [7] is P rats. The series is described as follows: EtOH and sucrose responding after oral (gavage) administration. The class given is in vivo, rat. An excerpt: In this study we compared the suppressant effect of βCCt and 3-PBC with naltrexone, a currently used alcohol antagonist on the market. As it is shown in FIG. 29A-B, orally administered βCCt can reduce alcohol responding, however, the effects are not dose related. In addition, 24 hr after administration of βCCt, it continues to reduce alcohol responding with selected doses. […] The suppressant effects of naltrexone in reducing alcohol responding are also dissipated 24 hr after the administration. […] Unlike naltrexone, the suppressant effects observed by βCCt and 3-PBC are selective for alcohol, and not reinforcers in general.

A further series has as its system GABAA α4β3γ2 receptors. Put plainly: Xenopus oocyte expression assay, modulation of GABA current. The class given is cell-based, rat.
The conditions of series [8]: June et al., 1998e; cited from earlier work.
The target of series [9] is T1, α6β3γ2 GABAA receptor. The conditions noted are these: footnoted b or c; read-out: Ki α6; cited from earlier work.
Series [10] addresses T4, α5β3γ2 GABAA receptor. To be noted: footnoted b or c; read-out: Ki α5; cited from earlier work.
A further series deals with T6, GABAA α5β3γ2 receptors (Rattus norvegicus, UniProt P18508+P19969).
T6 construct: expressed in transfected cells; host or cells: Xenopus laevis oocytes injected with cRNA
Put plainly: Xenopus oocyte expression assay, modulation of GABA current. The conditions noted are these: saturating 1-10 μM modulator with EC50 GABA (30 μM); mean±S.D. The class given is cell-based.

The target of series [11] is T3, α3β3γ2 GABAA receptor. To be noted: footnoted b or c; read-out: Ki α3; cited from earlier work.
Another series has as its system GABAA α3β3γ2 receptors. Put plainly: Xenopus oocyte expression assay, modulation of GABA current. The class given is cell-based, rat. To be noted: saturating 1-10 μM modulator with EC50 GABA (30 μM); mean±S.D.
Series [12] has as its system alcohol-preferring (P) rats. To be noted: parenteral and oral administration (June et al., 1998b); cited from earlier work.
A further series concerns the target T7, GABAA α1β3γ2 receptors (Rattus norvegicus, UniProt P18508+P62813).
T7 construct: expressed in transfected cells; host or cells: Xenopus laevis oocytes injected with cRNA
The series is described as follows: Xenopus oocyte expression assay, modulation of GABA current. Format: cell-based. To be noted: saturating 1-10 μM modulator with EC50 GABA (50 μM); mean±S.D.

Series [13] has as its target T2, α1β3γ2 GABAA receptor. The conditions noted are these: footnoted b (Schering Labs, unpublished) or c (McKernan et al., 2000); read-out: Ki α1; cited from earlier work.
In series [14] the target is T5, α2β3γ2 GABAA receptor. The conditions noted are these: footnoted b or c; read-out: Ki α2; cited from earlier work.
The next series deals with GABAA α2β3γ2 receptors. The series is described as follows: Xenopus oocyte expression assay, modulation of GABA current. Format: cell-based, rat. To be noted: saturating 1-10 μM modulator with EC50 GABA (50 μM); mean±S.D.
A further series concerns squirrel monkeys. The conditions noted are these: Rowlett et al., unpublished observation; cited from earlier work.
The test system of series [15] is recombinant GABAA α1 through α5 (β3γ2) receptors. Put plainly: Xenopus oocyte expression assay, result stated across several subtypes. Format: cell-based, rat. The conditions noted are these: saturating concentration; compared with 3-PBC.
In series [16] the test system is P rats. Format: in vivo, rat. The conditions noted are these: i.p.; chlordiazepoxide 10 mg/kg, βCCt 15 mg/kg; 10 min open field. The procedure:
(§1) Ambulatory count in the open field was recorded individually for 10 min in a plexiglas chamber (42 cm×42 cm 30 cm) using a Digiscan activity monitoring system (Acuscan Electronics, Columbus, Ohio, USA) (for details of the monitoring system see June et al., 1998d).
(§2) βCCt (15 mg/kg i.p.) and chlordiazepoxide (10 mg/kg i.p.) were administered 15 and 30 min, respectively, prior to the rats being placed in the open field. EtOH (1.25 g/kg) was given 5 min prior to placing the rats in the open field. When βCCt was given in combination with either chlordiazepoxide or EtOH, it was given 10 min prior to chlordiazepoxide and EtOH. As noted above, βCCt was administered in Tween-20 solution, while all other drugs were mixed in sterile saline. Animals were tested between 9 am-3 pm.
(§3) Ambulatory count in the open field was recorded individually for 10 min in a plexiglas chamber (42 cm×42 cm 30 cm) using a Digiscan activity monitoring system (Acuscan Electronics, Columbus, Ohio, USA) (for details of the monitoring system see June et al., 1998b).
(§4) βCCt (5-60 mg/kg i.p.) and chlordiazepoxide (2.5, 5, 10 mg/kg i.p.) were administered 15 and 30 min, respectively, prior to being placed in the plus maze or open field. EtOH (1.25 g/kg) was given 5 min prior to placing the rats in the open field. When βCCt was given in combination with either chlordiazepoxide or EtOH, it was given 10 min prior to chlordiazepoxide and EtOH. As noted above, βCCt was administered in Tween-20 solution, while all other drugs were mixed in sterile saline. Animals were tested between 9am-3 pm.

A further series relates to HAD-1 rats. Format: in vivo, rat. To be noted: i.p.; chlordiazepoxide 10 mg/kg, βCCt 15 mg/kg; 10 min open field. The procedure:
as §1, §2, §3, §4

Where [17] appears, read: recombinant αxβ3γ2, read-out: Ki α6.
Where [18] appears, read: recombinant αxβ3γ2, read-out: Ki α5.

Read-outs that look alike come from different tables or passages of the source.

T4 sequence (P31644 32-462): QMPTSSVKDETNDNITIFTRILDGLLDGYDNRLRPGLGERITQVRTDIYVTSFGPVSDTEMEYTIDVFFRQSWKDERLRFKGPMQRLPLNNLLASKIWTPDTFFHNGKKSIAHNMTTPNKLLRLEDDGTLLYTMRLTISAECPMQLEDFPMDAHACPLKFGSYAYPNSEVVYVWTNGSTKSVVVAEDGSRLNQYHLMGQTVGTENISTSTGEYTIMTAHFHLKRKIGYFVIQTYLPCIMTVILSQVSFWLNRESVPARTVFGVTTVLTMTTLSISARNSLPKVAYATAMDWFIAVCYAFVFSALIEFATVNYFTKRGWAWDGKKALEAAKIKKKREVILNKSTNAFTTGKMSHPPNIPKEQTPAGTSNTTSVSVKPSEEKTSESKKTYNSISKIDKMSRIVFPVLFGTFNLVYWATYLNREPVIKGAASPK
T4 sequence (P28472 26-473 partner): as the sequence (P28472 26-473 partner) above
T4 sequence (P18507 40-475): as the sequence (P18507 40-475) above
T1 sequence (Q16445 20-453): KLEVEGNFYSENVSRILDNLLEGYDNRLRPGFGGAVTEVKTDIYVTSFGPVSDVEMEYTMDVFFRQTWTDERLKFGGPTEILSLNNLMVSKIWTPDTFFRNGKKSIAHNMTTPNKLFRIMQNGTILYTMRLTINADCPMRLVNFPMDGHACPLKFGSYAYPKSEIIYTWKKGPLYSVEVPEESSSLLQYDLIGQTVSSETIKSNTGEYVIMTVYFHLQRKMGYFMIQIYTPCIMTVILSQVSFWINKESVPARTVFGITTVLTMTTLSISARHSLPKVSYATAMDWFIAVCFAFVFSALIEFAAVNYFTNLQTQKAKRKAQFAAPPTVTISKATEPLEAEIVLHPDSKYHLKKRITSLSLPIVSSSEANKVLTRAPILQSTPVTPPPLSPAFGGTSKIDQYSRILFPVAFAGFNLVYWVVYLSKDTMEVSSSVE
T1 sequence (P28472 26-473 partner): as the sequence (P28472 26-473 partner) above
T1 sequence (P18507 40-475): as the sequence (P18507 40-475) above
T2 sequence (P14867 28-456): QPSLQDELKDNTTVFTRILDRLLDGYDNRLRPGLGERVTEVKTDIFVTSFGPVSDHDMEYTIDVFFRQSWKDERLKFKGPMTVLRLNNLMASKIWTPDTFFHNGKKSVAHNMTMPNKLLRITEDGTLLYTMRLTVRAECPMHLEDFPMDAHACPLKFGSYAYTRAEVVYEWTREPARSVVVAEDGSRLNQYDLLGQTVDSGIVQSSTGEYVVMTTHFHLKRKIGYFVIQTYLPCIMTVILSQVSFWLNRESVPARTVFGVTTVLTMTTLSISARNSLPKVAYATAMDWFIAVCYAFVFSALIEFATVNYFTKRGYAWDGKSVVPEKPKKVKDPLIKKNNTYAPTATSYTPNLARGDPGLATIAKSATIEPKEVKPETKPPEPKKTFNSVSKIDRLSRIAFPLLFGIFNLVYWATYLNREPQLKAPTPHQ
T2 sequence (P28472 26-473 partner): as the sequence (P28472 26-473 partner) above
T2 sequence (P18507 40-475): as the sequence (P18507 40-475) above
T7 sequence (P62813 28-455): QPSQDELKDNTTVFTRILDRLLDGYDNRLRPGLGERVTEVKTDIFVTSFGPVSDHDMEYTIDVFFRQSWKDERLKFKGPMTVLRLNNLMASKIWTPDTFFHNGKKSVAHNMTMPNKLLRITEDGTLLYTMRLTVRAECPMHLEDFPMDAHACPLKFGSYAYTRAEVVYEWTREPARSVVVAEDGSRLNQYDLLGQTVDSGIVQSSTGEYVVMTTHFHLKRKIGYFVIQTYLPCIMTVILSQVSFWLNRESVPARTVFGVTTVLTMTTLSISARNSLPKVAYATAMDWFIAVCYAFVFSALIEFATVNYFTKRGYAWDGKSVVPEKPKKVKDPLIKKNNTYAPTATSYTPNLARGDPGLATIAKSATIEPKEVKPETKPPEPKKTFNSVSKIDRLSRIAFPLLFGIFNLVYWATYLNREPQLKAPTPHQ
T7 sequence (P63079 26-473 partner): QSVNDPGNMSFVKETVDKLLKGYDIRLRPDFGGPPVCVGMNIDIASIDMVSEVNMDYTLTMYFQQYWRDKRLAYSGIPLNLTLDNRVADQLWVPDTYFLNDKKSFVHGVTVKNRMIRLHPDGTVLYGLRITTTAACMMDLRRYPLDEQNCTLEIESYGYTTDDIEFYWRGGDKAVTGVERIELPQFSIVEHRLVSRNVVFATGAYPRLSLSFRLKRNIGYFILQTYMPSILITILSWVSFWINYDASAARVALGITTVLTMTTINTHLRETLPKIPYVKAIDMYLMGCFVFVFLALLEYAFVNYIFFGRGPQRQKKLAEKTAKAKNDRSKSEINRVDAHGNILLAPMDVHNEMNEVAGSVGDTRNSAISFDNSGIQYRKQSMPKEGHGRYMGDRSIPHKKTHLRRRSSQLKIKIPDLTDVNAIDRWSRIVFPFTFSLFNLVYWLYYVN
T7 sequence (P18508 39-466): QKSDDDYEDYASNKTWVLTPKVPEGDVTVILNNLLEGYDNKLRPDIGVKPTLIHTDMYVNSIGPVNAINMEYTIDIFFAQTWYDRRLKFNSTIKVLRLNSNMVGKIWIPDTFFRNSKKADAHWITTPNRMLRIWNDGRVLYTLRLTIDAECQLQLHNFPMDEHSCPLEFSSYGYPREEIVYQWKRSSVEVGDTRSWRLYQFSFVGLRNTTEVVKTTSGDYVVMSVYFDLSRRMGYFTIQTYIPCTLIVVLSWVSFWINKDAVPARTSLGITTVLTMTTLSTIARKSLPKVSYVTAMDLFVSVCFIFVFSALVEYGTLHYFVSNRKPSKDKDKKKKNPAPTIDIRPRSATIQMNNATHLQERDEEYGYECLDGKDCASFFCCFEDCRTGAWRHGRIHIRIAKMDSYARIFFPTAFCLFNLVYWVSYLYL

Take `Cc1nnc2ccc(-c3cccc(C(F)(F)F)c3)nn12` [CL218, 872, reference compound]: the Ki is > 1000 nM on α6β3γ2 GABAA receptor [1] (setting [17]); 57 nM on α1β3γ2 GABAA receptor [2]; 1160 nM at α3β3γ2 GABAA receptor [3]; 561 nM on α5β3γ2 GABAA receptor [4] (setting [18]); 1960 nM at α2β3γ2 GABAA receptor [5].

Consider `COc1cc2c(cn1)[nH]c1ccccc12` [3-methoxy], for which the IC50 in [6] is 124 nM.

Take `O=C1CC[C@@]2(O)[C@H]3Cc4ccc(O)c5c4[C@@]2(CCN3CC2CC2)[C@H]1O5` [Naltrexone, naltrexone, reference compound]: in the series on P rats [7] (oral (gavage) 75 mg/kg), the responding for sucrose entry is given as “significantly reduces responding for sucrose”. Further, the EtOH responding entry in the series on P rats [7] (oral (gavage), βCCt 15 & 30 mg/kg, 3-PBC 30-75 mg/kg, naltrexone 30-75 mg/kg) is on record as “significantly reduces EtOH responding”. Moreover, the “EtOH responding 24 hours after administration” value in the series with P rats [7] (oral (gavage), βCCt 15 & 75 mg/kg) is recorded as “dissipated”.

As for `CCOC(=O)c1ncc2[nH]c3cccc(OC(C)C)c3c2c1C` [ZK 93426], the “% of GABA response, α4” value in the series on GABAA α4β3γ2 receptors was 137±8%. Moreover, in [8], the “blocking the sedative actions of alcohol” value was “capable of blocking”. For the same compound, the Ki on α6β3γ2 GABAA receptor [9] was 1600 nM; at α5β3γ2 GABAA receptor [10], 3 nM; at α3β3γ2 GABAA receptor [11], 24 nM; at α1β3γ2 GABAA receptor [13] it was 11 nM; on α2β3γ2 GABAA receptor [14], 31 nM. The “% of GABA response, α5” value at GABAA α5β3γ2 receptors is listed as ~96±6%. Further, the “% of GABA response, α3” value with GABAA α3β3γ2 receptors is 147±10%. The alcohol-maintained responding entry in series [12] is recorded as “can selectively reduce alcohol-maintained responding”. In addition, on GABAA α1β3γ2 receptors, the “% of GABA response, α1” value is 146+11%. In the series on GABAA α2β3γ2 receptors, the “% of GABA response, α2” value was 140±13%.

With `Cc1ccc(-c2nc3ccc(C)cn3c2CC(=O)N(C)C)cc1` [Zolpidem, reference compound], the inhibition constant (Ki) at α6β3γ2 GABAA receptor [1] and at α5β3γ2 GABAA receptor [4] was > 1000 nM each time.

As for `CCOC(=O)c1ncn2c1CN(C)C(=O)c1cc(F)ccc1-2` [Ro15-1788, flumazenil], the “% of GABA response, α4” value in the series on GABAA α4β3γ2 receptors (saturating 1-10 μM modulator with EC50 GABA (10 μM), mean±S.D.) was 132±6%. For the same compound, the “% of GABA response, α5” value on GABAA α5β3γ2 receptors is reported as 96±6%. Moreover, in the series with squirrel monkeys, the “activity in observational studies vs saline controls” value was “decreased overall activity”. In addition, the “% of GABA response, α3” value in the series on GABAA α3β3γ2 receptors amounted to 118±7%. In addition, in series [12], the alcohol-maintained responding entry is on record as “did not alter EtOH-maintained responding”. The “% of GABA response, α1” value on GABAA α1β3γ2 receptors came out at 99±5%. The “efficacy profile at the α1 through α5 receptors” value in series [15] is listed as “statistically similar to 3-PBC”. The “% of GABA response, α2” value in the series with GABAA α2β3γ2 receptors came to 115±4%.

On to `Cn1ncnc1COc1nn2c(-c3cc(F)ccc3F)nnc2cc1C(C)(C)C` [L-838, 417], for which the Ki at α6β3γ2 GABAA receptor [9] is 2.25 nM; at α5β3γ2 GABAA receptor [10], 267 nM; on α3β3γ2 GABAA receptor [11] it was 0.67 nM; at α1β3γ2 GABAA receptor [13], 0.79 nM; on α2β3γ2 GABAA receptor [14], 0.67 nM.

For the compound `CCOC(=O)c1cc2c(cn1)[nH]c1ccccc12` [βCCE], the IC50 in series [6] worked out at 5 nM.

`CNC1=Nc2ccc(Cl)cc2C(c2ccccc2)=[N+]([O-])C1` [Chlordiazepoxide, reference compound]: the “locomotor activity, drug given alone” value was “profound and comparable reduction in locomotor activity” with P rats [16]; “profound and comparable reduction in locomotor activity” with HAD-1 rats.

Regarding `CCOc1cc2c(cn1)[nH]c1ccccc12` [3-EBC], the Ki at α6β3γ2 GABAA receptor [1] (setting [17]) was > 1000 nM; at α1β3γ2 GABAA receptor [2], 6.43 nM; at α5β3γ2 GABAA receptor [4] (setting [18]), 868 nM; on α2β3γ2 GABAA receptor [5], 25.1 nM. In series [6], the IC50 was 24 nM.
